Reference: US11925632B2, “Isoquinoline derivatives for use in treating GLUT1 deficiency syndrome” (GLIAPHARM SA, priority 2019, dated 2024)
“Also recorded” adds a separate entry of the source.

What was measured:
[1] = tested on: astrocytes transfected with GLUT1 siRNA; assay: Lactate secretion, GLUT1 siRNA astrocytes (cellular model of GLUT1-DS); type: cell-based, mouse; conditions: vs vehicle
Description: Secretion of L-lactate was measured in the extracellular medium of 96-well plated astrocytes after 90 min stimulation (at 37° C., in 5% CO2/95% air conditions) with Vehicle (DMSO), the compounds of the invention (100 nM to 100 μM) or positive control. […] Stimulation medium was composed of D5030 medium complemented with 5 mM D-glucose and 44 mM sodium bicarbonate, pH 7.2. To quantify lactate concentrations in the extracellular medium, 200 μl of a 0.2M Glycine-semicarbazide buffer (pH 10) containing 3 mM NAD and 14 U/ml LDH was added to each well of a 96-well plate containing 30 μl aliquots of extracellular medium. Samples were incubated at 37° C. for 1 h. Fluorescence intensity (340 nm excitation/450 nm emission), which represents the amount of NADH produced, was measured, and lactate concentration values were determined relative to a standard curve of L-lactate concentrations.
Scramble and GLUT1 siRNA sequences were as following:
Cells were grown in transfection medium for 3 days at 37° C. in a humidified atmosphere containing 5% CO2/95% air. After 3 days, transfection medium was replaced with DMEM D5030 supplemented with 44 mM NaHCO3 and 5 mM D-Glucose (1 ml per well).
Lactate secretion after treatment with Veh or compound of the invention (1) was measured in astrocytes transfected with scramble siRNA or GLUT1 siRNA (FIG. 4B).

[2] = tested on: C57Bl/6J wild-type mice; assay: In vivo pharmacodynamics, lactate biosensors (cerebral extracellular lactate); parameters: species or system mouse; conditions: 3 h recording, AUC ratio vs vehicle
Description: (§1) For pharmacodynamics (FIG. 5) and cognition (FIG. 7) experiments, adult male C57Bl/6J wild-type mice weighting 18-28 g (8 weeks of age) were used (Charles River). For ALS mouse models (FIG. 6), G93A SOD1 transgenic male and female mice on B6.SJL1-Gur/J background were used (Jackson Laboratory).
(§2) Animals were housed in groups of 3-5 in polypropylene cages (30×40×15 cm) with wire mesh top in a temperature (22±2° C.) and humidity (55±15%) controlled environment on a 12 hour light cycle (07.00-19.00 h lights on), except after surgeries when animal were housed individually. […]
Cerebral extracellular levels of lactate were monitored in vivo using lactate biosensors (Pinnacle Technology), according to the manufacturer's instructions. […] After surgery, mice were monitored closely and received analgesic treatment for at least 4 days. […] Concentrations of cerebral extracellular lactate were calculated from lactate probe electric signals using post-calibration values. […] Area Under the Curve (AUC) of lactate concentration curves were calculated using Graphpad Prism and the ratio of AUC after drug over Vehicle administration was calculated. Extracellular concentrations of L-lactate were measured in real time in freely moving animals for 3 hours after administration of Vehicle or Compound (1) (FIG. 5).

[3] = tested on: G93A SOD1 transgenic mice; assay: SOD1 G93A mouse ALS model (grip test, survival); type: in vivo
Description: as §1, §2
Transgenic mice on B6.SJL1-Gur/J background overexpressing the human mutated gene G93A SOD1 were used. […] F1 pups were genotyped after ear punching at weaning, using quantitative PCR (qPCR), which allowed determining the number of SOD1 copies in each mouse. […] Each mouse's weight was recorded every day throughout the entire treatment, while neuromuscular function was measured once a week. […]
The experiment was conducted in a room with a low light intensity (30 lux) to reduce stressful environment. […] Mice ability to grip the grid (time [s]) was measured in order to assess for their muscle strength and coordination. […]

COc1cc2ccnc(Nc3ccc(OC(F)(F)F)cc3)c2cc1OC [Example 1, 6,7-dimethoxy-N-(4-(trifluoromethoxy)phenyl)isoquinolin-1-amine]
Lactate secretion [1]: restored; also recorded: significantly enhances lactate secretion | Extracellular lactate levels in the brain ([2]; 10 mg/kg per os): significantly increases extracellular lactate levels | Extracellular lactate levels in the brain ([2]; 100 mg/kg per os): significantly increases extracellular lactate levels | Muscle function (grip test), onset of symptoms ([3]; 10 mg/kg oral daily from post-natal day 30, measured weekly until 16 weeks of age): delayed the onset of the symptoms | Survival (life span, Kaplan-Meier) ([3]; 10 mg/kg oral daily from post-natal day 30, vs vehicle): significantly increased life span
